Source: US20130029367A1, “COMPOSITIONS AND METHODS FOR MONITORING BREAST CANCER TREATMENT” (Board of Trustees of the University of Arkansas, priority 2003, published 2013)

Experiments:
[1] = test system: human gastrointestinal epithelial cell line (CaCo); experiment: Cellular uptake of glutamine in CaCo cells (HPLC detection at 340 nm); assay type: in vitro ADME
Experimental: Distilled, deionized water (107 ml) was added to 207 grams of a dry mixture of sucrose, sorbitol, and glutamine with excipients (Aesgen-14) as listed in Table 1.
Both samples were allowed to stand for 1 day at room temperature. The supernatant was decanted from the residue and used for the cellular uptake determination.
On Day 1, cells from a human gastrointestinal epithelial cell line (CaCo) were plated at a density of 0.5×10^6 cells per well in a 6-well tissue culture dish.
At time points 0, 10, 20, 40, and 60 seconds, the test material was aspirated and the cells washed three times (3×) with chilled (4EC) phosphate buffered saline (PBS), followed by the addition of 1.0 ml of perchloric acid. Cells were harvested by scraping, then aspirated by pipet into a 1.7 ml tube.
The harvested cells were sonicated for 10 seconds, and 500:1 of sonicated cells were transferred into a 1.7 ml tube. The perchloric acid was neutralized by the addition of 130:1 of 2M KHCO3, and the resulting mixture was frozen overnight at −80EC.
Upon thawing, the sample was centrifuged for 10 minutes at 14,000 rpm and the supernatants were transferred to new 1.7 ml tubes and frozen at −80EC. The resulting clarified samples were thawed and diluted 1:3 with deionized water. Fifty microliters were withdrawn, added to 10 microliters complete o-phthaldialdehyde (Sigma P-0532), and mixed by agitation. After incubation for two minutes at room temperature, a 20:1 sample was injected on a Hypersil® C18 Elite 5:m HPLC column using 70:30 acetonitrile:water as the mobile phase. Glutamine levels, measured as :g/ml, were detected at 340 nm.

[2] = test system: radiation injury to normal breast tissue in BCT patients; experiment: Phase III pilot study: oral AES-14 vs placebo for radiation injury to the breast in BCT patients; assay type: in vivo, human; conditions: at 2 year follow-up
Experimental: This theory was tested in two parts. […] A Phase III pilot study in which 17 patients were randomized to oral AES-14 (30 gm GLN/day, approximately 0.5 gm GLN/kg/day) or placebo from one week prior until one week after radiation therapy (5,000 cGy) was performed. Patients were followed weekly for 7 weeks and every 3 months for 2 years for acute and chronic radiation injury using the RTOG scales, skin biopsy at 0 and 7 weeks, GLN and GSH levels, US, mammogram density, lymphedema, quality of life and performance status.
The RTOG acute radiation morbidity scoring criteria for skin ranges from 0 (no change) to 4 (necrosis). A score of 2 (moist desquamation) was considered failure of treatment. Patients receiving oral AES-14 scored an average of 0.9±0.2, SEM compared to 1.4±0.2 in the placebo group. All patients in the placebo group reached a score of 2 or greater during the first 7 weeks. Two of 8 placebo patients required radiation therapy delay. […] Only 4 of 9 patients in the AES-14 group scored a high of 2, none a 3 (p=0.03 AES-14 vs. placebo, Fisher Exact). At 12 months, 4 of 8 patients in the placebo group complained of pain for which 3 required narcotics, 6 of 8 had significant edema, and 4 of 8 marked increased density and firmness of the radiated breast. […]

[3] = test system: 9.29 kDa protein; experiment: SELDI-MS of serum proteins in breast cancer patients on radiation therapy and oral glutamine (AES-14); assay type: in vivo, human
Text: Sixteen breast cancer patients treated with radiation therapy were randomized to receive oral supplemental glutamine (AES-14) or a placebo. Ten of the sixteen women received AES-14 (30 g glutamine per day, approximately 0.5 g glutamine/kg/day) from one week prior to initiating radiation therapy (5,000 cGy) until one week after completing radiation therapy. Six patients received placebo. Serum was collected from each patient before beginning glutamine supplementation (Baseline), at two and four weeks after initiating glutamine supplementation, and one week after stopping glutamine supplementation (Post Treatment in FIG. 1).
Serum proteins from each sample were analyzed by SELDI-MS. Briefly, serum proteins were adhered to the solid substrate of a SELDI chip. The proteins were then desorbed by surface enhanced laser desorption in a SELDI-MS apparatus, and analyzed by mass spectrometry.
SELDI-MS was performed using a Ciphergen (Freemont, Calif.) SELDI PDSII instrument. […] The mass:charge ratio (m/z) of each protein was determined according to a variety of externally calibrated peptide and protein standards. […]
The SELDI-MS procedure analyzed proteins over the m/z ratio ranges of 2-20 and 20-100 kDa.

- mean cellular glutamine uptake ([1]; normal cells, incubation time 0 seconds): 3.53 :g/ml
- mean cellular glutamine uptake ([1]; normal cells, incubation time 10 seconds): 10.30 :g/ml
- mean cellular glutamine uptake ([1]; normal cells, incubation time 20 seconds): 2.48 :g/ml
- mean cellular glutamine uptake ([1]; normal cells, incubation time 40 seconds): 3.23 :g/ml
- mean cellular glutamine uptake ([1]; normal cells, incubation time 60 seconds): 4.85 :g/ml
- mean cellular glutamine uptake ([1]; starved cells (L-glutamine deficient medium), incubation time 0 seconds): 1.33 :g/ml
- mean cellular glutamine uptake ([1]; starved cells (L-glutamine deficient medium), incubation time 10 seconds): 1.43 :g/ml
- mean cellular glutamine uptake ([1]; starved cells (L-glutamine deficient medium), incubation time 20 seconds): 1.49 :g/ml
- mean cellular glutamine uptake ([1]; starved cells (L-glutamine deficient medium), incubation time 40 seconds): 2.23 :g/ml
- mean cellular glutamine uptake ([1]; starved cells (L-glutamine deficient medium), incubation time 60 seconds): 49.96 :g/ml
Structure (SMILES): NC(=O)CC[C@H](N)C(=O)O [L-glutamine]
- patients with local recurrence [2]: none
- increase in amount of the 9.29 kDa protein ([3]; first two weeks of glutamine supplementation and radiation therapy): approximately 3 fold
- amount of the 9.29 kDa protein after discontinuation ([3]; within one week following discontinuation of glutamine): returned to near the baseline value
